Patent publication US8999970B2, “Administration of an anti-obesity compound to individuals with renal impairment” (Arena Pharmaceuticals, Inc., priority 2010, dated 2015)

How the values were obtained:
[1] = Preclinical toxicology: M1 and M5 pharmacokinetics after oral administration of lorcaserin, 52 wk, rats
[2] = Adverse events in the renal impairment clinical study APD356-016; format: in vivo, human
Source text: The incidence of adverse events was not related to severity of renal impairment. Events considered possibly or probably related to lorcaserin included 1 event each of abdominal pain (moderate group), diarrhea (moderate group), dyspepsia (mild group), stomach discomfort (mild group), and worsening renal impairment (moderate group). Two events of dizziness (1 in severe group, one in ESRD group) and 3 events of headache (2 normal, 1 moderate group) were considered possibly/probably related to study drug. A summary of the Treatment Emergent Adverse Events in the APD356-016 study by renal impairment groups and relationship to study drug are listed in Table 11.

[3] = lorcaserin 10 mg/kg/day oral, F
[4] = lorcaserin 10 mg/kg/day oral, M
[5] = lorcaserin 30 mg/kg/day oral, F
[6] = lorcaserin 30 mg/kg/day oral, M
[7] = lorcaserin 100 mg/kg/day oral, F
[8] = lorcaserin 100 mg/kg/day oral, M

Structure (SMILES): C[C@H]1CN(C(=O)O[C@@H]2O[C@H](C(=O)O)[C@@H](O)[C@H](O)[C@H]2O)CCc2ccc(Cl)cc21 [Compound M5, N-carbamoyl glucuronide of lorcaserin]
- AUC0-inf [1, 3]: 0.349 µg·h/mL
- AUClast [1, 3]: 0.273 µg·h/mL
- Cmax [1, 3]: 53.8 ng/mL
- tmax [1, 3]: 0.5 h
- AUC0-inf [1, 4]: 0.602 µg·h/mL
- AUClast [1, 4]: 0.550 µg·h/mL
- Cmax [1, 4]: 178 ng/mL
- tmax [1, 4]: 1.0 h
- AUC0-inf [1, 5]: 1.96 µg·h/mL
- AUClast [1, 5]: 1.62 µg·h/mL
- Cmax [1, 5]: 337 ng/mL
- tmax [1, 5]: 1.0 h
- AUC0-inf [1, 6]: 3.1 µg·h/mL
- AUClast [1, 6]: 3.07 µg·h/mL
- Cmax [1, 6]: 559 ng/mL
- tmax [1, 6]: 0.5 h
- AUC0-inf [1, 7]: 12.8 µg·h/mL
- AUClast [1, 7]: 11.1 µg·h/mL
- Cmax [1, 7]: 1200 ng/mL
- tmax [1, 7]: 2.0 h
- AUC0-inf [1, 8]: 16.5 µg·h/mL
- AUClast [1, 8]: 14.9 µg·h/mL
- Cmax [1, 8]: 2030 ng/mL
- tmax [1, 8]: 0.5 h

Structure (SMILES): C[C@H]1CNCCc2ccc(Cl)cc21 [Lorcaserin, (R)-8-chloro-1-methyl-2,3,4,5-tetrahydro-1H-3-benzazepine]
- Events of dizziness possibly/probably related ([2]; 1 severe group, one ESRD group): Two
- Events of headache possibly/probably related ([2]; 2 normal, 1 moderate group): 3
- Number (%) of Subjects Reporting AEs ([2]; End Stage (N = 8)): 1 (12.5%)
- Number (%) of Subjects Reporting AEs By Maximum Intensity: Mild ([2]; End Stage (N = 8)): 1 (12.5%)
- Number (%) of Subjects Reporting AEs By Maximum Intensity: Moderate ([2]; End Stage (N = 8)): 0 (0.0%)
- Number (%) of Subjects Reporting AEs By Maximum Intensity: Severe ([2]; End Stage (N = 8)): 0 (0.0%)
- Number (%) of Subjects Reporting AEs By Most Direct Relationship to Study Treatment: Not Related ([2]; End Stage (N = 8)): 1 (12.5%)
- Number (%) of Subjects Reporting AEs By Most Direct Relationship to Study Treatment: Possible ([2]; End Stage (N = 8)): 0 (0.0%)
- Number (%) of Subjects Reporting AEs By Most Direct Relationship to Study Treatment: Probable ([2]; End Stage (N = 8)): 0 (0.0%)
- Number (%) of Subjects Reporting AEs By Most Direct Relationship to Study Treatment: Unlikely ([2]; End Stage (N = 8)): 0 (0.0%)
- Number of AEs Reported ([2]; End Stage (N = 8)): 1
- Number (%) of Subjects Reporting AEs ([2]; Mild (N = 8)): 2 (25.0%)
- Number (%) of Subjects Reporting AEs By Maximum Intensity: Mild ([2]; Mild (N = 8)): 2 (25.0%)
- Number (%) of Subjects Reporting AEs By Maximum Intensity: Moderate ([2]; Mild (N = 8)): 0 (0.0%)
- Number (%) of Subjects Reporting AEs By Maximum Intensity: Severe ([2]; Mild (N = 8)): 0 (0.0%)
- Number (%) of Subjects Reporting AEs By Most Direct Relationship to Study Treatment: Not Related ([2]; Mild (N = 8)): 0 (0.0%)
- Number (%) of Subjects Reporting AEs By Most Direct Relationship to Study Treatment: Possible ([2]; Mild (N = 8)): 1 (12.5%)
- Number (%) of Subjects Reporting AEs By Most Direct Relationship to Study Treatment: Probable ([2]; Mild (N = 8)): 1 (12.5%)
- Number (%) of Subjects Reporting AEs By Most Direct Relationship to Study Treatment: Unlikely ([2]; Mild (N = 8)): 0 (0.0%)
- Number of AEs Reported ([2]; Mild (N = 8)): 3
- Number (%) of Subjects Reporting AEs ([2]; Moderate (N = 8)): 5 (62.5%)
- Number (%) of Subjects Reporting AEs By Maximum Intensity: Mild ([2]; Moderate (N = 8)): 4 (50.0%)
- Number (%) of Subjects Reporting AEs By Maximum Intensity: Moderate ([2]; Moderate (N = 8)): 1 (12.5%)
- Number (%) of Subjects Reporting AEs By Maximum Intensity: Severe ([2]; Moderate (N = 8)): 0 (0.0%)
- Number (%) of Subjects Reporting AEs By Most Direct Relationship to Study Treatment: Not Related ([2]; Moderate (N = 8)): 1 (12.5%)
- Number (%) of Subjects Reporting AEs By Most Direct Relationship to Study Treatment: Possible ([2]; Moderate (N = 8)): 3 (37.5%)
- Number (%) of Subjects Reporting AEs By Most Direct Relationship to Study Treatment: Probable ([2]; Moderate (N = 8)): 0 (0.0%)
- Number (%) of Subjects Reporting AEs By Most Direct Relationship to Study Treatment: Unlikely ([2]; Moderate (N = 8)): 1 (12.5%)
- Number of AEs Reported ([2]; Moderate (N = 8)): 9
- Number (%) of Subjects Reporting AEs ([2]; Normal (N = 8)): 4 (50.0%)
- Number (%) of Subjects Reporting AEs By Maximum Intensity: Mild ([2]; Normal (N = 8)): 4 (50.0%)
- Number (%) of Subjects Reporting AEs By Maximum Intensity: Moderate ([2]; Normal (N = 8)): 0 (0.0%)
- Number (%) of Subjects Reporting AEs By Maximum Intensity: Severe ([2]; Normal (N = 8)): 0 (0.0%)
- Number (%) of Subjects Reporting AEs By Most Direct Relationship to Study Treatment: Not Related ([2]; Normal (N = 8)): 0 (0.0%)
- Number (%) of Subjects Reporting AEs By Most Direct Relationship to Study Treatment: Possible ([2]; Normal (N = 8)): 1 (12.5%)
- Number (%) of Subjects Reporting AEs By Most Direct Relationship to Study Treatment: Probable ([2]; Normal (N = 8)): 1 (12.5%)
- Number (%) of Subjects Reporting AEs By Most Direct Relationship to Study Treatment: Unlikely ([2]; Normal (N = 8)): 2 (25.0%)
- Number of AEs Reported ([2]; Normal (N = 8)): 4
- Number (%) of Subjects Reporting AEs ([2]; Severe (N = 8)): 3 (37.5%)
- Number (%) of Subjects Reporting AEs By Maximum Intensity: Mild ([2]; Severe (N = 8)): 3 (37.5%)
- Number (%) of Subjects Reporting AEs By Maximum Intensity: Moderate ([2]; Severe (N = 8)): 0 (0.0%)
- Number (%) of Subjects Reporting AEs By Maximum Intensity: Severe ([2]; Severe (N = 8)): 0 (0.0%)
- Number (%) of Subjects Reporting AEs By Most Direct Relationship to Study Treatment: Not Related ([2]; Severe (N = 8)): 0 (0.0%)
- Number (%) of Subjects Reporting AEs By Most Direct Relationship to Study Treatment: Possible ([2]; Severe (N = 8)): 1 (12.5%)
- Number (%) of Subjects Reporting AEs By Most Direct Relationship to Study Treatment: Probable ([2]; Severe (N = 8)): 0 (0.0%)
- Number (%) of Subjects Reporting AEs By Most Direct Relationship to Study Treatment: Unlikely ([2]; Severe (N = 8)): 2 (25.0%)
- Number of AEs Reported ([2]; Severe (N = 8)): 4
- Relation of incidence of adverse events to severity of renal impairment ([2]; human, in vivo): not related
- Events of dyspepsia possibly or probably related ([2]; mild group): 1
- Events of stomach discomfort possibly or probably related ([2]; mild group): 1
- Events of abdominal pain possibly or probably related ([2]; moderate group): 1
- Events of diarrhea possibly or probably related ([2]; moderate group): 1
- Events of worsening renal impairment possibly or probably related ([2]; moderate group): 1

Structure (SMILES): C[C@H]1CN(S(=O)(=O)O)CCc2ccc(Cl)cc21 [Compound M1, lorcaserin sulfamate]
- AUC0-inf [1, 3]: 200 µg·h/mL
- AUClast [1, 3]: 193 µg·h/mL
- Cmax [1, 3]: 16300 ng/mL
- tmax [1, 3]: 1.0 h
- AUC0-inf [1, 4]: 175 µg·h/mL
- AUClast [1, 4]: 170 µg·h/mL
- Cmax [1, 4]: 15400 ng/mL
- tmax [1, 4]: 1.0 h
- AUC0-inf [1, 5]: 443 µg·h/mL
- AUClast [1, 5]: 412 µg·h/mL
- Cmax [1, 5]: 31700 ng/mL
- tmax [1, 5]: 4.0 h
- AUC0-inf [1, 6]: 338 µg·h/mL
- AUClast [1, 6]: 319 µg·h/mL
- Cmax [1, 6]: 23900 ng/mL
- tmax [1, 6]: 1.0 h
- AUC0-inf [1, 7]: 1480 µg·h/mL
- AUClast [1, 7]: 1050 µg·h/mL
- Cmax [1, 7]: 63700 ng/mL
- tmax [1, 7]: 2.0 h
- AUC0-inf [1, 8]: 927 µg·h/mL
- AUClast [1, 8]: 633 µg·h/mL
- Cmax [1, 8]: 36000 ng/mL
- tmax [1, 8]: 0.5 h
